What was measured:
KB tumor-bearing mice = experiment: µPET imaging in KB tumor-bearing mice; format: in vivo, mouse
Description: (§1) All animal experiments were approved by the local ethical committee (permission no. 23177-07/G15-1-033). Balb/c and balb/c nude (Balb/c AnNRj-Foxn1nu) mice were kept on a folate-deficient rodent diet to reduce their blood level of folate to one found in humans. After 7 days of acclimatization, human KB tumor cells (2.5 x 10^6 cells in PBS) were inoculated in the right shoulder of each balb/c nude mouse. All in vivo treatments and imaging experiments were done under isoflurane anesthesia. Eleven or twelve days after inoculation, animals were intravenously injected with ^18F-DBCO-Folate and ^18F-Ala-Folate (5–8 MBq, 100–200 µL) via a lateral tail vein. […] PET/MRI-studies were performed on a nanoScan PET/MRI (Mediso, Budapest, Hungary). First MRI scans (Material Map for co-registration of the PET scan; 3D; GRE-EXT, FOV; slice thickness: 0.6 mm; TE: 2 ms; TR: 15 ms; flip angle: 25 deg) were acquired and then either a dynamic scan over 60 min starting with injection of the radiotracer or a static scan for 10 min after 50 min p.i. were performed. All mice, which underwent ex vivo biodistribution, were scanned first. Afterwards co-registered PET/MR images were analyzed via PMOD (version 3.6) and Inveon Research Workplace (version 4.2). For ex vivo biodistribution studies mice were euthanized 60 min p.i. and organs of interest were dissected, weighed, and measured in a γ-counter (PerkinElmer 2470 Wizard2, Perkin Elmer, Rodgau, Germany). The incorporated radioactivity was expressed as percentage of injected dose per gram of tissue (% ID/g).

[1] = set-up: method as in doi:10.1039/C5MD00508F; details: pH 7.4, shake-flask; cited from earlier work
KB-tumor bearing mice = experiment: Ex vivo biodistribution in KB-tumor bearing mice; details: 60 min p.i.; for uptake Appendix / uptake Blood / uptake Heart / uptake Inguinal lymph nodes / uptake Intestines (empty) / uptake Left kidney / uptake Liver / uptake Lung / uptake Muscle / uptake Pancreas / uptake Right kidney / uptake Spleen / uptake Stomach (empty) / uptake Tumor: KB xenograft mice
Description: as §1

healthy balb/c mice = experiment: Ex vivo biodistribution in healthy balb/c mice; details: healthy balb/c mice, 60 min p.i.
Description: as §1

FR-negative OC316 cells = experiment: Internalization studies in FR-negative OC316 cells; format: cell-based, human; details: blocked KB cells and FR-negative OC316 cells
Experimental: (§2) Two different temperatures (4 °C for receptor binding, 37 °C for receptor binding and internalization) and two different concentrations were assessed. […] Both radiofolates show a concentration as well as temperature depended increase of activity in the FR positive cells. […] This effect is not fully understood, but we presume the high lipophilicity in combination with the increased concentration being responsible for this high non-specific binding. […] Thus, about 90% of ^18F-DBCO-folate remained in solution, which is ideal for such a radiotracer assay set-up (see supporting information for pie chart of activity distribution, Figure S6). For ^18F-Ala-folate the overall receptor-bound and internalized fractions are similar to ^18F-DBCO-folate (see supporting information for pie chart of activity distribution, Figure S7).
As folate-receptor positive control, KB cells (derived from human cervical carcinoma; obtained from German Collection of Microorganisms and Cell Cultures), and OC316 cells (derived from human ovarian adenocarcinoma) as negative control were used. For FACS analysis, data of both cell lines see supporting information Figure S5. The cells were cultured in folate deficient RPMI 1640 medium containing 10% FCS, 1% penicillin-streptomycin and HEPES buffer (10 mM, 5 mL) grown at 37 °C in a humidified atmosphere containing 5% CO2. […]

[2] = Stability in human serum albumin at 37 °C; details: 2 h
Experimental: The in vitro stability was assessed in human serum albumin at 37 °C.
For testing the stability, 200 µL of ^18F-DBCO-folate or ^18F-Ala-folate (ca. 4 MBq) were incubated at 37 °C in 500 µL human serum albumin. After predetermined time points plasma proteins were precipitated with 600 µL ice-cold acetonitrile followed by centrifugation (10,000 rpm, 10 min). An aliquot of the supernatant was injected into an analytical radio-HPLC.

FR-positive KB cells = experiment: Internalization studies in FR-positive KB cells; format: cell-based, human; details: 5 nM, 37 °C, 1 h
Experimental: as §2
As folate-receptor positive control, KB cells (derived from human cervical carcinoma; obtained from German Collection of Microorganisms and Cell Cultures), and OC316 cells (derived from human ovarian adenocarcinoma) as negative control were used. For FACS analysis, data of both cell lines see supporting information Figure S5. The cells were cultured in folate deficient RPMI 1640 medium containing 10% FCS, 1% penicillin-streptomycin and HEPES buffer (10 mM, 5 mL) grown at 37 °C in a humidified atmosphere containing 5% CO2. […] To determine the internalized fraction of both new ^18F-folate derivatives, different concentrations (1 and 5 nM) of the labeled agents were incubated with one million KB or OC316 cells at 4 °C and 37 °C. […] After 1h, the supernatant was removed, cells washed with PBS and with an acetate buffer (pH 3).

[3] = blockade with 100 µg native folic acid
[4] = blocked with 100 µg native folic acid

Nc1nc2ncc(CNc3ccc(C(=O)NC(CCC(=O)NCCOCCOCCOCCn4nnc5c4-c4ccccc4CN(C(=O)CCNC(=O)CCOCCOCCOCC[18F])c4ccccc4-5)C(=O)O)cc3)nc2c(=O)[nH]1 (stereo not drawn) [^18F-DBCO-folate]
uptake in the bones (in vivo defluorination) (KB tumor-bearing mice; PET): Negligible uptake | visualization of KB tumors in maximum intensity projection (MIP) PET images (KB tumor-bearing mice; static scan 50-60 min p.i.): impeded | logD7.4 Value [1]: 0.6 ± 0.07 [18] | tumor/blood ratio (KB-tumor bearing mice): 5.61 | tumor/muscle ratio (KB-tumor bearing mice): 6.86 | uptake Appendix (KB-tumor bearing mice): 0.13 ± 0.02 %ID/g tissue | uptake Blood (KB-tumor bearing mice): 0.09 ± 0.04 %ID/g tissue | uptake Heart (KB-tumor bearing mice): 0.08 ± 0.02 %ID/g tissue | uptake Inguinal lymph nodes (KB-tumor bearing mice): 0.48 ± 0.14 %ID/g tissue | uptake Intestines (empty) (KB-tumor bearing mice): 0.42 ± 0.52 %ID/g tissue | uptake Left kidney (KB-tumor bearing mice): 4.83 ± 0.90 %ID/g tissue | uptake Liver (KB-tumor bearing mice): 0.18 ± 0.07 %ID/g tissue | uptake Lung (KB-tumor bearing mice): 0.17 ±0.06 %ID/g tissue | uptake Muscle (KB-tumor bearing mice): 0.07 ± 0.01 %ID/g tissue | uptake Pancreas (KB-tumor bearing mice): 0.07 ±0.01 %ID/g tissue | uptake Right kidney (KB-tumor bearing mice): 4.76 ± 0.89 %ID/g tissue | uptake Spleen (KB-tumor bearing mice): 0.06 ± 0.02 %ID/g tissue | uptake Stomach (empty) (KB-tumor bearing mice): 0.82 ± 0.64 %ID/g tissue | uptake Tumor (KB-tumor bearing mice): 0.48 ± 0.14 %ID/g tissue | uptake Appendix (KB-tumor bearing mice; [3]): 0.07 ± 0.01 %ID/g tissue | uptake Blood (KB-tumor bearing mice; [3]): 0.06 ± 0.04 %ID/g tissue | uptake Heart (KB-tumor bearing mice; [3]): 0.04 ± 0.02 %ID/g tissue | uptake Inguinal lymph nodes (KB-tumor bearing mice; [3]): 0.04 ± 0.02 %ID/g tissue | uptake Intestines (empty) (KB-tumor bearing mice; [3]): 0.56 ± 0.81 %ID/g tissue | uptake Left kidney (KB-tumor bearing mice; [3]): 0.30 ± 0.04 %ID/g tissue | uptake Liver (KB-tumor bearing mice; [3]): 0.14 ± 0.06 %ID/g tissue | uptake Lung (KB-tumor bearing mice; [3]): 0.13 ± 0.05 %ID/g tissue | uptake Muscle (KB-tumor bearing mice; [3]): 0.02 ± 0.01 %ID/g tissue | uptake Pancreas (KB-tumor bearing mice; [3]): 0.03 ± 0.02 %ID/g tissue | uptake Right kidney (KB-tumor bearing mice; [3]): 0.30 ± 0.02 %ID/g tissue | uptake Spleen (KB-tumor bearing mice; [3]): 0.05 ± 0.03 %ID/g tissue | uptake Stomach (empty) (KB-tumor bearing mice; [3]): 0.22 ± 0.09 %ID/g tissue | uptake Tumor (KB-tumor bearing mice; [3]): 0.09 ± 0.04 %ID/g tissue | tumor/liver ratio (KB-tumor bearing mice; liver including gallbladder): 2.58 | reduction of activity in the tumor in the blocked group (KB-tumor bearing mice; preinjection of excess native folic acid): 81% | uptake Blood (healthy balb/c mice): 0.08 ± 0.01 %ID/g tissue | uptake Heart (healthy balb/c mice): 0.09 ± 0.01 %ID/g tissue | uptake Inguinal lymph nodes (healthy balb/c mice): 0.18 ± 0.08 %ID/g tissue | uptake Intestines (empty) (healthy balb/c mice): 0.87 ± 0.57 %ID/g tissue | uptake Left kidney (healthy balb/c mice): 3.90 ± 0.38 %ID/g tissue | uptake Liver (healthy balb/c mice): 0.24 ± 0.02 %ID/g tissue | uptake Lung (healthy balb/c mice): 0.35 ± 0.27 %ID/g tissue | uptake Muscle (healthy balb/c mice): 0.06 ± 0.01 %ID/g tissue | uptake Pancreas (healthy balb/c mice): 0.08 ± 0.01 %ID/g tissue | uptake Right kidney (healthy balb/c mice): 3.99 ± 0.37 %ID/g tissue | uptake Spleen (healthy balb/c mice): 0.07 ± 0.02 %ID/g tissue | uptake Blood (healthy balb/c mice; [4]): 0.12 ± 0.05 %ID/g tissue | uptake Heart (healthy balb/c mice; [4]): 0.11 ± 0.06 %ID/g tissue | uptake Inguinal lymph nodes (healthy balb/c mice; [4]): 0.10 ± 0.08 %ID/g tissue | uptake Intestines (empty) (healthy balb/c mice; [4]): 0.33 ± 0.22 %ID/g tissue | uptake Left kidney (healthy balb/c mice; [4]): 0.40 ± 0.07 %ID/g tissue | uptake Liver (healthy balb/c mice; [4]): 0.33 ± 0.08 %ID/g tissue | uptake Lung (healthy balb/c mice; [4]): 0.36 ± 0.11 %ID/g tissue | uptake Muscle (healthy balb/c mice; [4]): 0.07 ± 0.05 %ID/g tissue | uptake Pancreas (healthy balb/c mice; [4]): 0.09 ± 0.05 %ID/g tissue | uptake Right kidney (healthy balb/c mice; [4]): 0.38 ± 0.07 %ID/g tissue | uptake Spleen (healthy balb/c mice; [4]): 0.11 ± 0.06 %ID/g tissue | non-specific binding (FR-negative OC316 cells): distinct non-specific binding | still intact after incubation [2]: > 90% | fraction of tracer internalized (FR-positive KB cells): about 3% | fraction of tracer receptor bound (FR-positive KB cells): about 7% | fraction of tracer remained in solution (FR-positive KB cells): about 90%

O=C(CCOCCOCCOCC[18F])NCCC(=O)N1Cc2ccccc2C#Cc2ccccc21 [^18F-DBCO]
logD7.4 Value [1]: 1.2 ± 0.07 [18]

— article PMC5874726, “Comparison Study of Two Differently Clicked ^18F-Folates—Lipophilicity Plays a Key Role” (Pharmaceuticals, 2018)
